# According to US6451618B2, “Test for detecting substances which alter the conformational structure of zinc fingers” (priority 1997, dated 2002):
# Like-named read-outs stand apart in the source and are kept apart here.
# Key:
# TFIIIA [1] = target: T1, TFIIIA (Xenopus laevis, UniProt P03001); format: binding; parameters: Immature ovarian tissue was dissected from 4-5 cm female X. laevis frogs; from tissue; host or cells: immature ovarian tissue (oocytes) of Xenopus laevis; 7S particles, 5S RNA removed with RNase A; details: for TFIIIA zinc finger affected by xenobiotic: general statement; for inhibition of TFIIIA-5S RNA gene interaction: 10 μM, data not shown; for concentration giving complete inhibition of TFIIIA binding: complete loss of DNase I protection and hypersensitivity; for concentration at which TFIIIA binding to the 5S RNA gene is inhibited: loss of DNase I protection, nucleotides +43 to +96, TFIIIA preincubated with metal; for reversibility of inhibition of TFIIIA binding: not overcome by added zinc ions
# Description: Inhibition of TFIIIA binding to the 5S ribosomal RNA gene was assayed by the DNase I protection method. In this assay, TFIIIA isolated from frogs, or as a recombinant protein, was incubated for a short period of time with a radioactively labeled double-stranded DNA fragment containing the 5S ribosomal RNA gene sequence (120 base-pairs in length). In TFIIIA's role in regulating ribosome synthesis, the protein birds specifically and tightly to this 5S gene sequence. When this occurs, the bound protein protects a large region of the 5S RNA gene from DNase I digestion. DNase I normally degrades the 5S gene and in the process generates a series of differently sized DNA fragments which can be resolved by electrophoresis. TFIIIA binding protects a DNA region comprising approximately 53 base pairs from DNase I degradation.
# Cadmium and aluminum inhibition of TFIIIA binding was ascertained by observing the loss of this protected region from 5S gene nucleotides (+43 to +96).
# The end-labeled fragment was ethanol precipitated, redigested with BamHI and the smaller fragment was purified by PAGE. Specific activity of the fragment was determined by absorbance at 260 nm and Cerenkov counting. To examine the effects of various metals on the TFIIIA-5S RNA gene interaction TFIIIA (10 nM) was incubated with the various metals (chloride salts of all metals were ultrapure grade and purchased from Aldrich; concentrations are indicated in the figure legends) in 20 mM Tris-HCl, pH 7.6, 70 mM NH4Cl, 7 mM MgCl2, 0.4 mM DTT and 0.1% NP-40 for 10 min prior to addition of the DNA fragment containing the end-labeled 5S RNA gene (1 nM). After addition of DNA the reaction (20 μl ) was incubated at room temperature for an additional 15 min. The reactions were then incubated for an additional 1 min in DNase I (2 μg/ml final concentration) and digestion was terminated by addition of 100 μl stop buffer (20 mM Tris-HCl, pH 7.6, 1 mM EDTA, 0.1% SDS, 30 μg/ml sonicated salmon sperm DNA). […] Gel autoradiography was performed overnight at −70° C. with Kodak XAR-5 film and a Dupont Cronex intensifying screen.
# Target sequence in this assay (P03001 23-366): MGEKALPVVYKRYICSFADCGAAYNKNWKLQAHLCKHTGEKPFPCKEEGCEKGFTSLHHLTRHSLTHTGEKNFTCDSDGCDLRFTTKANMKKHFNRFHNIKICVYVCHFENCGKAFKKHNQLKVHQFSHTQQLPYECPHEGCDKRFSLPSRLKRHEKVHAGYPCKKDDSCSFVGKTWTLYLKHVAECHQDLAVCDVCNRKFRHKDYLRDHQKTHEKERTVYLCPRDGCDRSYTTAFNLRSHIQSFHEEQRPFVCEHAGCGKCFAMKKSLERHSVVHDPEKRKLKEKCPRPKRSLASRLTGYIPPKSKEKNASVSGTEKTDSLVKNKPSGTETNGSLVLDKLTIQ
# estrogen receptor (ER) [2] = details: hormone-bound estrogen receptor; cited from earlier work
# estrogen receptor (ER) [3] = details: cited from earlier work
# TFIIIA [4] = target: T1, TFIIIA; test: TFIIIA-dependent DNA renaturation assay; format: biochemical; parameters: Immature ovarian tissue was dissected from 4-5 cm female X. laevis frogs; from tissue; host or cells: immature ovarian tissue (oocytes) of Xenopus laevis; 7S particles, 5S RNA removed with RNase A
# Target sequence in this assay (P03001 23-366): as above
# Description: DNA migration in the Tris-phosphate agarose gel electrophoresis system used in the DNA renaturation assay is sensitive to some types of DNA structural changes. This assay is useful in this study because it can detect structural changes in the nanomolar DNA concentration range.
# DNA renaturation (hybridization of complementary single-stranded DNA) was assayed by binding 20 nM Xenopus TFIIIA to 2 nM heat-denatured ^32P labeled 5S gene DNA for 15 min. Reactions are terminated by detergent and electrophoresed on an agarose gel which resolves the slower migrating single-stranded DNA (s.s.) from the faster migrating double-stranded DNA (d.s.) DNA bands are visualized by autoradiography. […] DNA migration in the absence and presence of cadmium.
# TFIIIA isolation, ^32P-end-labeling of the 5S RNA gene, denaturation and renaturation reactions, Tris-phosphate agarose gel electrophoresis and autoradiography were performed as described above in the methodology section herein. […]
# TFIIIA [5] = target: T1, TFIIIA; details: excitation 360 nanometers
# Description: Zinc is then removed from TFIIIA (- ZINC sample) by incubation with the zinc chelator, ethylenediamine tetraacetic acid (EDTA). Relative emission fluorescent intensity spectra of the TFIIIA-bound AEDANS probe are recorded using an excitation wavelength of 360 nanometers.
# Target sequence in this assay (P03001 23-366 limits assumed): as the sequence (P03001 23-366) above
molecule,measurement,setting,value
HgCl2 [Mercury],TFIIIA zinc finger affected by xenobiotic,TFIIIA [1],not
same,inhibition of TFIIIA zinc finger binding to DNA,"TFIIIA [1]; preincubated in 5, 10, 15, 20 μM HgCl2",does not inhibit
[Cl-].[Cs+] [Cs^2+],inhibition of TFIIIA-5S RNA gene interaction,TFIIIA [1],non-inhibitory
same,TFIIIA zinc finger affected by xenobiotic,TFIIIA [1],not
[Cl][Mn][Cl] [Mn^2+],inhibition of TFIIIA-5S RNA gene interaction,TFIIIA [1],non-inhibitory
same,TFIIIA zinc finger affected by xenobiotic,TFIIIA [1],not
"[Cl][Cd][Cl] [Cd^2+, CdCl2]",concentration inhibiting DNA binding by activated receptors,estrogen receptor (ER) [2],1 mM
same,concentration inhibiting initial binding of hormone to receptor,estrogen receptor (ER) [3],0.1 mM
same,in vitro inhibitory concentration relative to serum concentration in moderate to heavy smokers,TFIIIA [1]; 0.1 μM Cd2+ for TFIIIA,approximately 5 fold
same,inhibitory molecules of metal ion per TFIIIA molecule,TFIIIA [1]; at 0.1 μM Cd2+,< 10 molecules per TFIIIA molecule
same,concentration giving complete inhibition of TFIIIA binding,TFIIIA [1],0.25 µM
same,TFIIIA zinc finger affected by xenobiotic,TFIIIA [1],affected
same,concentration at which TFIIIA binding to the 5S RNA gene is inhibited,TFIIIA [1],0.1 µM
same,reversibility of inhibition of TFIIIA binding,TFIIIA [1],irreversible
same,inhibition of TFIIIA-dependent DNA renaturation,"TFIIIA [4]; TFIIIA 10, 20 or 30 nM preincubated with 1 μM CdCl2",inhibition of DNA renaturation
"[Cl][Al]([Cl])[Cl] [Al^3+, AlCl3]",inhibitory concentration relative to that for Cd2+,TFIIIA [1]; Al3+ versus Cd2+,about 50 fold
same,concentration giving slight inhibition of TFIIIA binding,TFIIIA [1]; FIG. lane 3,1 µM
same,concentration giving complete inhibition of TFIIIA binding,TFIIIA [1],5 to 7 µM
same,TFIIIA zinc finger affected by xenobiotic,TFIIIA [1],affected
same,concentration at which TFIIIA binding to the 5S RNA gene is inhibited,TFIIIA [1],3 µM
same,reversibility of inhibition of TFIIIA binding,TFIIIA [1],irreversible
same,inhibition of TFIIIA-dependent DNA renaturation,TFIIIA [4]; TFIIIA preincubated with 50 μM AlCl3 (panel B),Inhibition of TFIIIA-dependent renaturation
"O=C(O)CN(CCN(CC(=O)O)CC(=O)O)CC(=O)O [EDTA, ethylenediamine tetraacetic acid]",emission wavelength after zinc removal,TFIIIA [5]; blue shift from 485 nanometers,478 nanometers
same,increase of emission fluorescence intensity,TFIIIA [5]; zinc removed from TFIIIA by EDTA,25%
[Cl][Pb][Cl] [PbCl2],TFIIIA zinc finger affected by xenobiotic,TFIIIA [1],affected
same,concentration at which TFIIIA binding to the 5S RNA gene is inhibited,TFIIIA [1],≥ 10 µM
O=[Se]([O-])[O-].[Na+].[Na+] [Na2SeO3],TFIIIA zinc finger affected by xenobiotic,TFIIIA [1],affected
same,concentration at which TFIIIA binding to the 5S RNA gene is inhibited,TFIIIA [1],≥ 25 µM
"[AsH3] [Arsenic, NaH2AsO4]",inhibition of TFIIIA zinc finger binding to DNA,"TFIIIA [1]; preincubated with 0.1, 0.5 or 1.0 mM NaH2AsO4",does not inhibit
[Cl-].[Cl-].[Mg+2] [Mg^2+],inhibition of TFIIIA-5S RNA gene interaction,TFIIIA [1],non-inhibitory
